Each structure is given as a SMILES string. pIC50: −log10 of the molar value.

The target in one assay is T1, human MBP-PDI-b′xa′ (Homo sapiens, UniProt P07237).
T1 construct: MBP-PDI-b′xa′(235–479); His-tag; made in house; host or cells: E. coli BL21 (DE3)
Briefly: Fluorescence-based direct binding assay. As to conditions: protein 18 μM, excitation 430 nm, emission 530 nm, n=3, Standard Error 0.14 μM; read-out: IC50 (binding affinity, fluorescence). How it is done: (§1) 2. Binding affinity (IC50) of rutin to human or murine MBP-fused PDI proteins The MBP-fused PDI proteins (18 μМ) were incubated with a gradient of 10 rutin’s concentrations differed by 2- or 3-fold and 3 repetitions in 384-well black plate at room temperature for 30 min before measurements. The total assay volume was filled to 100 μL using the assay buffer (pH 7.4) contains 150 mM NaCl, 20 mM Tris, 1 mM EDTA, 1 mM β-ME and 5% glycerin. The fluorescence emission spectrum of the mixture were measured with the excitation at 430 nm and the emission at 530 nm at room temperature on a BioTek Synergy microplate reader with a sensitivity of 100. The data were analyzed by GraphPad Prism (Fig. S3).

The next assay has as its target T2, murine MBP-mPDI-b′x (Mus musculus, UniProt P09103).
T2 construct: The murine MBP-mPDI-b′x (236–369); His-tag; made in house; host or cells: E. coli BL21 (DE3)
The experiment in a line: Fluorescence-based direct binding assay. To be noted: protein 18 μM, excitation 430 nm, emission 530 nm, n=3, Standard Error 0.15 μM; read-out: IC50 (binding affinity, fluorescence). How it is done:
as §1

Another assay deals with T3, human MBP-PDI-b′x (Homo sapiens, UniProt P07237).
T3 construct: The human MBP-PDI-b′x (235–369); His-tag; made in house; host or cells: E. coli BL21 (DE3)
Briefly: Fluorescence-based direct binding assay. To be noted: protein 18 μM, excitation 430 nm, emission 530 nm, n=3, Standard Error 0.16 μM; read-out: IC50 (binding affinity, fluorescence). How it is done: as §1

Assay [1] deals with T4, murine MBP-mPDI-b′xa′ (Mus musculus, UniProt P09103).
T4 construct: MBP-mPDI-b′xa′ (236–477); His-tag; made in house; host or cells: E. coli BL21 (DE3)
Briefly: Fluorescence-based direct binding assay. To be noted: protein 18 μM, excitation 430 nm, emission 530 nm, n=3, Standard Error 0.15 μM; read-out: IC50 (binding affinity, fluorescence). How it is done:
as §1

Assay [2] deals with T5, full-length human PDI (Homo sapiens, UniProt P07237). Briefly: Fluorescence-based direct binding assay. To be noted: protein 18 μM, excitation 430 nm, emission 530 nm, n=3, Standard Error 0.18 μM; read-out: IC50 (binding affinity, fluorescence). As to the method:
as §1

Assay [3] relates to platelet aggregation and fibrin generation. As to conditions: cited from earlier work.
The target of the next assay is T6, MBP-PDI-b′xa′ K328E (Homo sapiens, UniProt P07237, K328E).
T6 construct: MBP-PDI-b′xa′(235–479); His-tag; made in house; host or cells: E. coli BL21 (DE3)
The experiment in a line: Insulin reduction assay. Type of assay: biochemical. As to conditions: rutin 100 μM. As to the method: (§2) The insulin reduction assay was performed to assess the enzymatic activity of PDI and its MBP-fused recombinant proteins. PDI can reduce insulin in the presence of dithiothreitol (DTT) along with increase in turbidity of the reaction mixture. We thus monitored spectrophotometrically the aggregation of reduced insulin through the increase of turbidity. The reductase activity was measured in 100 μL in presence of 600 μM insulin, 1.5 μM PDI and recombinant PDI proteins, 1 mM DTT, and with protein buffer (pH 7.4), at room temperature over 100 min by absorption at 650 nm. For inhibition assay, 100 μM of rutin, kaempferitrin, tiliroside and 2′-O-galloylhyperin or control buffer was added to the reaction system.
(§3) We further used the insulin reduction assay to measure the reductase activities of these site-directed MBP-PDI-b′xa′ mutants. This assay has typically good reproducibility as shown by a control experiment with three repetitions (Fig. S7 ^†). We found the PDI mutants maintained reductase activities in the presence of dithiothreitol (DTT). The H354A mutation lowered the reductase activity of wt MBP-PDI-b′xa′ (Fig. 3G) while other mutants had similar reductase activities with that of wt MBP-PDI-b′xa′ (Fig. 3C, F and H–J). Addition of rutin inhibited the reductase activities of both wt MBP-PDI-b′xa′ and the mutants (Fig. 3C and F–J). […] We quantified the inhibition of rutin on these MBP-PDI-b′xa′ mutants by measuring the increase of turbidity (OD650 at 100 min) upon addition of rutin (Fig. 3K).

The target in another assay is T7, MBP-PDI-b′xa′ E359K (Homo sapiens, UniProt P07237, E359K).
T7 construct: MBP-PDI-b′xa′(235–479); His-tag; made in house; host or cells: E. coli BL21 (DE3)
The experiment in a line: Insulin reduction assay. Type of assay: biochemical. To be noted: rutin 100 μM. As to the method:
as §2, §3

For a further assay, the target named is T8, MBP-PDI-b′xa′ L355R (Homo sapiens, UniProt P07237, L355R).
T8 construct: MBP-PDI-b′xa′(235–479); His-tag; made in house; host or cells: E. coli BL21 (DE3)
The experiment in a line: Insulin reduction assay. Type of assay: biochemical. As to conditions: rutin 100 μM. As to the method:
as §2, §3

The target in the next assay is T9, wt MBP-PDI-b′xa′ (Homo sapiens, UniProt P07237).
T9 construct: MBP-PDI-b′xa′(235–479); His-tag; made in house; host or cells: E. coli BL21 (DE3)
Briefly: Insulin reduction assay. Type of assay: biochemical. As to the method: as §2, §3

The target of another assay is T10, MBP-PDI-b′xa′ E359A (Homo sapiens, UniProt P07237, E359A).
T10 construct: MBP-PDI-b′xa′(235–479); His-tag; made in house; host or cells: E. coli BL21 (DE3)
The experiment in a line: Insulin reduction assay. Type of assay: biochemical. As to conditions: rutin 100 μM. As to the method:
as §2, §3

In the next assay the target is T11, MBP-PDI-b′xa′ H354A (Homo sapiens, UniProt P07237, H354A).
T11 construct: MBP-PDI-b′xa′(235–479); His-tag; made in house; host or cells: E. coli BL21 (DE3)
Briefly: Insulin reduction assay. As to conditions: rutin 100 μM. Type of assay: biochemical. As to the method:
as §2, §3

The subject of the next assay is thioredoxin. Also noted: method as in PMID 22565308. To be noted: cited from earlier work.
The target of assay [4] is T4, murine MBP-mPDI-b′xa′. The experiment in a line: Insulin reduction assay. Type of assay: biochemical. As to conditions: rutin 100 μM, last read (100 min); MBP-mPDI-b′xa′ alone 0.832. As to the method: as §2
The target of assay [5] is T5, full-length human PDI. Briefly: Insulin reduction assay. Type of assay: biochemical. As to conditions: compound 100 μM, 1.5 μM protein, last read (100 min); PDI alone 1.125. As to the method: as §2
The mark [6] stands for this setting: mouse models, dose of 0.5 mg kg^−1.

T8 sequence (P07237 235-479 L355R): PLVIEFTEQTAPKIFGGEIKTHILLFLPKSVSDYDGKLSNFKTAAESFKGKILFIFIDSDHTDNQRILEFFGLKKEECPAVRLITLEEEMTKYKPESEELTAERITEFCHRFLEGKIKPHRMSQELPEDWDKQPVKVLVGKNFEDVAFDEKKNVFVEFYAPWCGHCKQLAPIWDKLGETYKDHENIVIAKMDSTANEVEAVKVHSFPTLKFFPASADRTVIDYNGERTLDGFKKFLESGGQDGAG
T11 sequence (P07237 235-479 H354A): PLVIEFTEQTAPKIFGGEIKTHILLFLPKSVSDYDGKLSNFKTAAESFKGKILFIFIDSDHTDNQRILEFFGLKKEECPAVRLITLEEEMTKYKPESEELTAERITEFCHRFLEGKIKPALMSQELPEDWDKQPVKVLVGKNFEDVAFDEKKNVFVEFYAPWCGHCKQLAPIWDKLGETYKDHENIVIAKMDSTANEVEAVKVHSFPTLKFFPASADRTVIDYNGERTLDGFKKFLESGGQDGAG
T9 sequence (P07237 235-479): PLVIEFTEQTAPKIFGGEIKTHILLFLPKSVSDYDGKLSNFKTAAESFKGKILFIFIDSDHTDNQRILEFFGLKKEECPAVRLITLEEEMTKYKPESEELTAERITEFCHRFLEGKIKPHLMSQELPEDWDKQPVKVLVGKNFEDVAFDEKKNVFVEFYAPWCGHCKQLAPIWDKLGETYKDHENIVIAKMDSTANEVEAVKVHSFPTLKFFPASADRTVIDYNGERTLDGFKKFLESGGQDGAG
T4 sequence (P09103 236-477): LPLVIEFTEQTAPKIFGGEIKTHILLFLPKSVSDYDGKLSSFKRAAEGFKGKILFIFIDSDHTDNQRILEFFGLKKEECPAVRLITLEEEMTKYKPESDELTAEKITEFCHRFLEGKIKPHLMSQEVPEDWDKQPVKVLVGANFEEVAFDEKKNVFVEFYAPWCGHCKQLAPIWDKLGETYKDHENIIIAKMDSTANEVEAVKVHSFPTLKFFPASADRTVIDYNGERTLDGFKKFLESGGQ
T6 sequence (P07237 235-479 K328E): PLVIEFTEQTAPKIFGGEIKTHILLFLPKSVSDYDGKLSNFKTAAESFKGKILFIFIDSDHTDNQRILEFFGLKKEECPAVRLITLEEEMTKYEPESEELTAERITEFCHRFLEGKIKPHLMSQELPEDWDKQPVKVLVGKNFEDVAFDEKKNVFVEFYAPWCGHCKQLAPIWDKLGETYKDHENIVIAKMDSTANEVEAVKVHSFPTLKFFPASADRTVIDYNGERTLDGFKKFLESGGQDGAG
T10 sequence (P07237 235-479 E359A): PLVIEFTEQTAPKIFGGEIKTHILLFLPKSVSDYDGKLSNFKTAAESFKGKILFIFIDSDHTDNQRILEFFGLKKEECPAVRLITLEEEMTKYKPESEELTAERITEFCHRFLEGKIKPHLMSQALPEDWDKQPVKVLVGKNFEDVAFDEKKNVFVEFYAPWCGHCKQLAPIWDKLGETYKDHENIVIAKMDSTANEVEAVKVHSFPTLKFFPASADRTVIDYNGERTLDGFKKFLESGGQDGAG
T7 sequence (P07237 235-479 E359K): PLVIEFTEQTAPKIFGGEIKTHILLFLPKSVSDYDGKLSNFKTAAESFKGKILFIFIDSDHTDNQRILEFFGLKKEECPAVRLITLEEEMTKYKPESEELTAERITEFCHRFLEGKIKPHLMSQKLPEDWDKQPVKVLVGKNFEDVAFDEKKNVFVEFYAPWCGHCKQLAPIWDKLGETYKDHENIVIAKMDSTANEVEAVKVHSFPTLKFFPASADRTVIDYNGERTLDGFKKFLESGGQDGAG
T5 sequence (P07237 18-508): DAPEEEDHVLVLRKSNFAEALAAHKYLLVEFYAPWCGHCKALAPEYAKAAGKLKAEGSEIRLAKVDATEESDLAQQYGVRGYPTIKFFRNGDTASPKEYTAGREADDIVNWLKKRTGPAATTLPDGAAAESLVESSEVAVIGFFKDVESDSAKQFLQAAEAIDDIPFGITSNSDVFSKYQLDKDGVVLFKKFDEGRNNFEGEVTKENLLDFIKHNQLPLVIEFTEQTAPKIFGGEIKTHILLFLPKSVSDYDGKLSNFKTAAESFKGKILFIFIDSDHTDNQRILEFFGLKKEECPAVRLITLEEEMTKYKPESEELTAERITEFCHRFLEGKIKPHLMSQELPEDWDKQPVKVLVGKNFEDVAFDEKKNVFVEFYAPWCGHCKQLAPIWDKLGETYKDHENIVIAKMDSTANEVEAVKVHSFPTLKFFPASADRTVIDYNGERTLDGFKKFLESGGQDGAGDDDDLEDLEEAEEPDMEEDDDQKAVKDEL
T2 sequence (P09103 236-369): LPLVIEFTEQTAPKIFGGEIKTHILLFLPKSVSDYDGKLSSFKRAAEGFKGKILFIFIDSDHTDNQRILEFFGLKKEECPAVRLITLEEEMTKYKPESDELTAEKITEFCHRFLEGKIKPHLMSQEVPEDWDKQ
T1 sequence (P07237 235-479): as the sequence (P07237 235-479) above
T3 sequence (P07237 235-369): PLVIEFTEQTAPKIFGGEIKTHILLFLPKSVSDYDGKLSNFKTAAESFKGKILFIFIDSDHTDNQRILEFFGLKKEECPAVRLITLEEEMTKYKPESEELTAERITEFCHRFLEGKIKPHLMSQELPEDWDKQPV

For the molecule `C[C@@H]1O[C@@H](OC[C@H]2O[C@@H](Oc3c(-c4ccc(O)c(O)c4)oc4cc(O)cc(O)c4c3=O)[C@H](O)[C@@H](O)[C@@H]2O)[C@H](O)[C@H](O)[C@H]1O` [rutin], the pIC50 at human MBP-PDI-b′xa′ is 4.54; at murine MBP-mPDI-b′x it was 4.80; on human MBP-PDI-b′x, 4.73; on murine MBP-mPDI-b′xa′ [1], 4.58; at full-length human PDI [2] it was 4.51. Besides, the “reversal of inhibitory activities on PDI in vivo” value in assay [3] (mouse model, infusion of PDI b′x fragment) is “rapidly reversed”. In addition, the “fibrin generation in vivo” value in assay [3] (setting [6]) is recorded as “blocked”. Further, in assay [3] (setting [6]), the “platelet aggregation in vivo” value is listed as “blocked”. Also, the inhibition at 100 µM on MBP-PDI-b′xa′ K328E (increase of turbidity (OD650) at 100 min, K328E, read-out: Inhibitory efficiency (%)) was found to be 99%; at MBP-PDI-b′xa′ E359K (increase of turbidity (OD650) at 100 min, E359K, read-out: Inhibitory efficiency (%)), 88.8%; on MBP-PDI-b′xa′ L355R (increase of turbidity (OD650) at 100 min, L355R, read-out: Inhibitory efficiency (%)), 98.4%; on wt MBP-PDI-b′xa′ (rutin 100 μM, increase of turbidity (OD650) at 100 min, wt, read-out: Inhibitory efficiency (%)), 100%; on MBP-PDI-b′xa′ E359A (increase of turbidity (OD650) at 100 min, E359A, read-out: Inhibitory efficiency (%)), 86%; on MBP-PDI-b′xa′ H354A (increase of turbidity (OD650) at 100 min, H354A, read-out: Inhibitory efficiency (%)), 82.9%. Moreover, the “turbidity (OD650), raw kinetic read at 1:40:32” value at MBP-PDI-b′xa′ K328E (last read (100 min), K328E alone 0.777) came out at 0.4; on MBP-PDI-b′xa′ E359K (last read (100 min), E359K alone 0.698), 0.4; on MBP-PDI-b′xa′ L355R (last read (100 min), L355R alone 0.819) it was 0.424; on wt MBP-PDI-b′xa′ (compound 100 μM, 1.5 μM protein, last read (100 min), WT alone 0.829) it was 0.585; on MBP-PDI-b′xa′ E359A (last read (100 min), E359A alone 0.711), 0.416; at MBP-PDI-b′xa′ H354A (last read (100 min), H354A alone 0.585) it was 0.35. In addition, the “turbidity (OD650), raw kinetic read at 1:40:32” value was determined as 0.583 at murine MBP-mPDI-b′xa′ [4] and 0.924 on full-length human PDI [5]. In addition, the “decrease of inhibitory efficiency compared with wt MBP-PDI-b′xa′” value on MBP-PDI-b′xa′ L355R (L355R) is recorded as “modest decrease”. In addition, in the assay with thioredoxin, the inhibition of thioredoxin result is given as “did not inhibit”.
